Assay results from DBAASP.
Values after ≈ are worked out from the molar mass of the structure shown.

Key:
Test in all cases: ≥ marks a high value that may be exact or a test limit, other limits are often not marked, values filed in µg/mL are converted to µM
[1] = system: Candida albicans NCTC 3179
[2] = system: Escherichia coli ATCC 25922
[3] = system: Staphylococcus aureus ATCC 25923
[4] = system: Acinetobacter baumannii ATCC 19606
[5] = system: Staphylococcus aureus ATCC 43300
[6] = system: Bacillus subtilis ATCC 6051
Acinetobacter baumannii = system: Acinetobacter baumannii
Pseudomonas aeruginosa = system: Pseudomonas aeruginosa
[7] = system: Klebsiella pneumoniae ATCC 13883
[8] = system: Cryptococcus neoformans ATCC 208821
[9] = system: Candida albicans ATCC 90028
[10] = system: Klebsiella pneumoniae ATCC BAA-2146
Klebsiella pneumoniae = system: Klebsiella pneumoniae
[11] = system: Klebsiella pneumoniae ATCC 700603
[12] = system: Pseudomonas aeruginosa ATCC 27853
Rhizoctonia solani = system: Rhizoctonia solani
[13] = system: Fusarium oxysporum f.sp. vasinfectum
[14] = system: Cryptococcus neoformans ATCC 28957
[15] = system: Pseudomonas syringae pv. tabaci
[16] = system: Pectobacterium carotovorum
Ramulariopsis gossypii = system: Ramulariopsis gossypii
Trichoderma asperellum = system: Trichoderma asperellum
Fusarium oxysporum = system: Fusarium oxysporum
[17] = system: Bacillus subtilis ATCC 23857
[18] = system: Xanthomonas campestris pv. citri
[19] = system: Bacillus cereus ATCC 14579
Fusarium solani = system: Fusarium solani
[20] = system: Pseudomonas aeruginosa PAO1
[21] = system: Campylobacter jejuni ATCC 33292
[22] = system: Enterococcus faecalis JH-2-2
[23] = system: Acinetobacter baumannii Q13-0717
[24] = system: Pseudomonas aeruginosa Q14-0890
[25] = system: Campylobacter jejuni NCTC 11161
[26] = system: Staphylococcus aureus USA 300
[27] = system: Klebsiella pneumoniae Q14-0095
Escherichia coli K-12 = system: Escherichia coli K-12
[28] = system: Staphylococcus aureus ATCC 33591
[29] = system: Staphylococcus aureus NCTC 12493
[30] = system: Staphylococcus aureus RN4220
[31] = system: Listeria monocytogenes NCTC 11994
[32] = system: Staphylococcus aureus MRSA-15
[33] = system: Pseudomonas aeruginosa Q12-0535
[34] = system: Staphylococcus aureus Q14-0320
[35] = system: Acinetobacter baumannii Q12-0809
[36] = system: Pseudomonas aeruginosa Q14-0208
Escherichia coli = system: Escherichia coli
[37] = system: Campylobacter jejuni NCTC 11351
[38] = system: Staphylococcus aureus ATCC 29213
[39] = system: Klebsiella pneumoniae NCTC 13442
[40] = system: Klebsiella pneumoniae Q14-0285
[41] = system: Acinetobacter baumannii Q12-0867
[42] = system: Salmonella typhimurium SL1344

`CC[C@H](C)[C@H](NC(=O)[C@H](C)NC(=O)[C@H](CC(=O)O)NC(=O)[C@H](CC(C)C)NC(=O)[C@H](CC(N)=O)NC(=O)[C@H](C)N)C(=O)N[C@H](C(=O)N[C@@H](CCCCN)C(=O)N[C@H](C(=O)N[C@@H](CCC(N)=O)C(=O)N[C@@H](C)C(=O)N[C@@H](Cc1c[nH]c2ccccc12)C(=O)N[C@@H](C)C(=O)N[C@@H](CCCN=C(N)N)C(=O)N[C@@H](CCSC)C(=O)N[C@@H](Cc1c[nH]c2ccccc12)C(=O)N[C@@H](C)C(=O)N[C@@H](C)C(=O)N[C@@H](CCCN=C(N)N)C(=O)N[C@@H](CCCN=C(N)N)C(=O)N[C@@H](CCC(N)=O)C(=O)N[C@@H](Cc1ccc(O)cc1)C(=O)N[C@@H](CC(C)C)C(=O)O)[C@@H](C)CC)[C@@H](C)CC` [ANLDAIIKIQAWARMWAARRQYL] gave an MIC [1] of no less than 90.6 µM, an MIC [2] of 2.03 µM (≈ 5.6 µg/mL) and an MIC [3] of 11.2 µM (≈ 31 µg/mL).
In the case of `CC[C@H](C)[C@@H]1NC(=O)CNC(=O)[C@H](CCCN=C(N)N)NC(=O)CNC(=O)[C@@H]2CSSC[C@H](NC1=O)C(=O)N[C@@H](Cc1ccc(O)cc1)C(=O)N[C@@H](CCCN=C(N)N)C(=O)N[C@@H](CCCN=C(N)N)C(=O)N[C@H](C(=O)N[C@@H](CCCN=C(N)N)C(=O)O)CSSC[C@H](NC(=O)[C@H](Cc1c[nH]c3ccccc13)NC(=O)[C@@H](N)CCCCN)C(=O)N[C@@H](Cc1ccccc1)C(=O)N[C@@H](CCCN=C(N)N)C(=O)N[C@@H](C(C)C)C(=O)N2` [KWCFRVCGRGICYRRCR], the MIC [4] is reported as 0.462 µM (≈ 0.998 µg/mL), the MIC [5] is reported as 7.4 µM (≈ 16 µg/mL) and the MIC [6] is reported as 0.231 µM (≈ 0.499 µg/mL). It also gave an MIC (Acinetobacter baumannii) of 0.925 µM (≈ 2 µg/mL), an MIC (Pseudomonas aeruginosa) of 7.4 µM (≈ 16 µg/mL) and an MIC [7] of 0.925 µM (≈ 2 µg/mL). The MIC [8] was 1.85 µM (≈ 3.99 µg/mL), the MIC [9] was 7.4 µM (≈ 16 µg/mL) and the MIC [2] was 0.231 µM (≈ 0.499 µg/mL). For the same compound, the MIC [10] was 3.7 µM (≈ 7.99 µg/mL), the MIC (Klebsiella pneumoniae) was greater than 7.4 µM and the MIC [11] was 3.7 µM (≈ 7.99 µg/mL). The MIC [12] was 3.7 µM (≈ 7.99 µg/mL).
With `CC(C)C[C@H](NC(=O)[C@H](C)NC(=O)[C@H](C)NC(=O)[C@@H](NC(=O)[C@H](CC(C)C)NC(=O)[C@H](CCCCN)NC(=O)[C@@H](NC(=O)[C@H](CC(C)C)NC(=O)[C@H](CCCN=C(N)N)NC(=O)[C@H](Cc1cnc[nH]1)NC(=O)[C@@H](N)CC(C)C)C(C)C)C(C)C)C(=O)N[C@@H](CC(C)C)C(=O)N[C@@H](CCCN=C(N)N)C(=O)NCC(=O)N[C@@H](Cc1ccc(O)cc1)C(=O)N[C@@H](C)C(=O)N[C@@H](CO)C(=O)N[C@@H](CCCCN)C(=O)N[C@H](C(=O)N[C@@H](CC(=O)O)C(=O)N[C@H](C(=O)N[C@@H](Cc1cnc[nH]1)C(N)=O)[C@@H](C)O)C(C)C` [LHRLVKLVAALLRGYASKVDTH] the MIC (Rhizoctonia solani) was 16 µM (≈ 39.4 µg/mL), the MIC [13] was 2 µM (≈ 4.92 µg/mL) and the MIC [14] was 8 µM (≈ 19.7 µg/mL). For the same compound, the MIC [15] was 4 µM (≈ 9.84 µg/mL), the MIC [16] was 3.33 µM (≈ 8.19 µg/mL) and the MIC (Ramulariopsis gossypii) was 4 µM (≈ 9.84 µg/mL). For the same compound, the MIC (Trichoderma asperellum) was 16 µM (≈ 39.4 µg/mL), the MIC (Fusarium oxysporum) was no less than 32 µM and the MIC [17] was 2 µM (≈ 4.92 µg/mL). For the same compound, the MIC [18] was 4 µM (≈ 9.84 µg/mL), the MIC [9] was 4 µM (≈ 9.84 µg/mL) and the MIC [2] was 2 µM (≈ 4.92 µg/mL). For the same compound, the MIC [19] was 6.67 µM (≈ 16.4 µg/mL), the MIC (Fusarium solani) was no less than 32 µM and the MIC [12] was 4 µM (≈ 9.84 µg/mL). For the same compound, the MIC [3] was 2 µM (≈ 4.92 µg/mL).
Compound `CC(C)C[C@H](NC(=O)[C@H](CS)NC(=O)[C@H](CC(C)C)NC(=O)[C@H](CCCN=C(N)N)NC(=O)[C@H](Cc1c[nH]c2ccccc12)NC(=O)[C@@H]1CCCN1C(=O)[C@@H](NC(=O)[C@H](CCCN=C(N)N)NC(=O)[C@H](CCCN=C(N)N)NC(=O)[C@H](Cc1ccccc1)NC(=O)[C@H](CCCN=C(N)N)NC(=O)[C@H](C)NC(=O)[C@@H](NC(=O)[C@H](Cc1ccccc1)NC(=O)[C@H](CCCN=C(N)N)NC(=O)[C@@H](N)CC(N)=O)[C@@H](C)O)[C@@H](C)O)C(=O)N[C@@H](CCC(N)=O)C(=O)N[C@@H](Cc1ccccc1)C(=O)N[C@@H](CCCN=C(N)N)C(=O)N[C@@H](CCC(N)=O)C(=O)O` [NRFTARFRRTPWRLCLQFRQ] has an MIC [20] of 12.1 µM (≈ 32 µg/mL), an MIC [21] of 24.1 µM (≈ 64 µg/mL) and an MIC [22] of 24.1 µM (≈ 64 µg/mL). The MIC [23] was 12.1 µM (≈ 32 µg/mL), the MIC [24] was 6.03 µM (≈ 16 µg/mL) and the MIC [25] was no less than 96.5 µM. For the same compound, the MIC [26] was 24.1 µM (≈ 64 µg/mL), the MIC [27] was 12.1 µM (≈ 32 µg/mL) and the MIC (Escherichia coli K-12) was 24.1 µM (≈ 64 µg/mL). It also gave an MIC [28] of 24.1 µM (≈ 64 µg/mL), an MIC [29] of 24.1 µM (≈ 64 µg/mL) and an MIC [30] of 12.1 µM (≈ 32 µg/mL). The MIC [31] was 12.1 µM (≈ 32 µg/mL), the MIC [32] was 12.1 µM (≈ 32 µg/mL) and the MIC [33] was no less than 48.2 µM. The MIC [34] was no less than 48.2 µM, the MIC [35] was 6.03 µM (≈ 16 µg/mL) and the MIC [36] was 12.1 µM (≈ 32 µg/mL). The MIC (Escherichia coli) was 48.2 µM (≈ 128 µg/mL), the MIC [37] was no less than 48.2 µM and the MIC [38] was 48.2 µM (≈ 128 µg/mL). The MIC [11] was 12.1 µM (≈ 32 µg/mL), the MIC [39] was 12.1 µM (≈ 32 µg/mL) and the MIC [40] was 24.1 µM (≈ 64 µg/mL). For the same compound, the MIC [12] was 48.2 µM (≈ 128 µg/mL), the MIC [41] was 3.02 µM (≈ 8 µg/mL) and the MIC [42] was 24.1 µM (≈ 64 µg/mL).
